Data: ChEMBL document CHEMBL3763143, “Novel morpholine scaffolds as selective dopamine (DA) D3 receptor antagonists” (Bioorg Med Chem Lett, 2016)

Tests used:
[1] = target: T1, D(3) dopamine receptor (Homo sapiens, UniProt P35462); test: Agonist activity at human dopamine D3 receptor expressed in CHO cells after 90 mins by [35S]-GTPgamma S assay; format: cell-based
[2] = target: D(3) dopamine receptor (Rattus norvegicus, UniProt P19020)
Description: Displacement of [125I]-7-OH-PIPAT from rat brain dopamine D3 receptor after 45 mins by microplate scintillation counting analysis

[3] = target: T1, D(3) dopamine receptor; test: Antagonist activity at human dopamine D3 receptor expressed in CHO cells after 90 mins by [35S]-GTPgamma S assay; format: cell-based
[4] = target: Voltage-gated inwardly rectifying potassium channel KCNH2 (Homo sapiens, UniProt Q12809); test: Displacement of [3H]-dofetilide from human ERG potassium channel by scintillation proximity assay
[5] = target: Dopamine receptor D2 and D3 (Rattus norvegicus) (UniProt P19020+P61169); test: Selectivity ratio of Ki for rat brain dopamine D2 receptor to Ki for rat brain dopamine D3 receptor
Sequence of Dopamine receptor D2 and D3 (Rattus norvegicus) (P19020 whole entry, looked up): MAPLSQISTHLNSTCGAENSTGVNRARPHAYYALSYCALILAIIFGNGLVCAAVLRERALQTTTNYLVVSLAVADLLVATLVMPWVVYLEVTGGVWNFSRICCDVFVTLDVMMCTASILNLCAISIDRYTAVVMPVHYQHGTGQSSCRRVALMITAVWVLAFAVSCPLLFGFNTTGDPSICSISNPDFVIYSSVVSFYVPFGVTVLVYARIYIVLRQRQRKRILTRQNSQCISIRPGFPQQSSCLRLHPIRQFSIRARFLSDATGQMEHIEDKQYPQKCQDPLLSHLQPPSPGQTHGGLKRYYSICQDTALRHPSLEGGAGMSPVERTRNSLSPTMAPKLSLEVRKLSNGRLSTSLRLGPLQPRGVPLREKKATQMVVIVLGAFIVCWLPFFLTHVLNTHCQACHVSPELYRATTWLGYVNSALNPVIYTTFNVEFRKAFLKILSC
Sequence of Dopamine receptor D2 and D3 (Rattus norvegicus) (P61169 whole entry, looked up): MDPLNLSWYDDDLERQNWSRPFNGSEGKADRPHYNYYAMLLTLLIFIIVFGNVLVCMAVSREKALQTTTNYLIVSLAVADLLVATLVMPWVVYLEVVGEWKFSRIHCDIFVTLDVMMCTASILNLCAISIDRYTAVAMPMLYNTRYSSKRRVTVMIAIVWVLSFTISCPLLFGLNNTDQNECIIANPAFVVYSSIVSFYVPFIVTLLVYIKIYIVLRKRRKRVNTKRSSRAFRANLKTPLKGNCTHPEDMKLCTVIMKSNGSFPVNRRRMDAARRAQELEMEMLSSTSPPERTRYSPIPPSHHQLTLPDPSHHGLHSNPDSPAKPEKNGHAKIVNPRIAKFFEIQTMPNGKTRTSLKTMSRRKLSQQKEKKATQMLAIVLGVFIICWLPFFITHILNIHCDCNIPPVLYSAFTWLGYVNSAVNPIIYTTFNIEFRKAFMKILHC

Sequence of Voltage-gated inwardly rectifying potassium channel KCNH2 (Q12809 whole entry): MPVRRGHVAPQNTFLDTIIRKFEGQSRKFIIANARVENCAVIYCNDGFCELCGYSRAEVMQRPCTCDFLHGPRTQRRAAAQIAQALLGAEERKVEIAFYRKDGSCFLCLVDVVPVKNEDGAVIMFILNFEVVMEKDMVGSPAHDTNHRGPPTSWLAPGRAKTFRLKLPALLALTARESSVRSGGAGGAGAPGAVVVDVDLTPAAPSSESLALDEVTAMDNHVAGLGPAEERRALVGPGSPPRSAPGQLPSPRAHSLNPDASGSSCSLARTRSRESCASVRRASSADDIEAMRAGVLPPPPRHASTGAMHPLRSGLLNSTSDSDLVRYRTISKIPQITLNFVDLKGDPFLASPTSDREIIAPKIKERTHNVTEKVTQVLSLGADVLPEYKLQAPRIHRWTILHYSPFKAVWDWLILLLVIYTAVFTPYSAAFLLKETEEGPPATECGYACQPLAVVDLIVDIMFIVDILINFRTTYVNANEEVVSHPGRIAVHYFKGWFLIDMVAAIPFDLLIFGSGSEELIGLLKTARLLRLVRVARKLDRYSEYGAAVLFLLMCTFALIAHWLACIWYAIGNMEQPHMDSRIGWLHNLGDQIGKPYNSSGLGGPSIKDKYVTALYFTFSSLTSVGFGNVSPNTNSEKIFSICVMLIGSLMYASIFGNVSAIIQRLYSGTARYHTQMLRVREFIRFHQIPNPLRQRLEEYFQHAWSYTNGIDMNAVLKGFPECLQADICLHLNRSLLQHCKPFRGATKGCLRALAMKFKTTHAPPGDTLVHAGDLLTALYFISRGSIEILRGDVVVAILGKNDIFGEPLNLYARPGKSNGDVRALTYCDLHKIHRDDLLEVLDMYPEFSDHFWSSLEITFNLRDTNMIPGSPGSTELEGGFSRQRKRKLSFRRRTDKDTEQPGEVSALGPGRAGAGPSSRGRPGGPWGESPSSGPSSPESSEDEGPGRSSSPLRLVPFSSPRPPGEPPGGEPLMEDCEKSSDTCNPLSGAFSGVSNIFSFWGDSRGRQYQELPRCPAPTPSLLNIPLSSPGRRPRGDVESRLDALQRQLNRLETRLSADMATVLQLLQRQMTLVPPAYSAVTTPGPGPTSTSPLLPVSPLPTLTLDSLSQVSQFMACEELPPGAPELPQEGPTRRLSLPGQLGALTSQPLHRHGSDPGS
Sequence of D(3) dopamine receptor (Rattus norvegicus, UniProt P19020) (P19020 whole entry): as the sequence (P19020 whole entry, looked up) above
T1 sequence (P35462 whole entry): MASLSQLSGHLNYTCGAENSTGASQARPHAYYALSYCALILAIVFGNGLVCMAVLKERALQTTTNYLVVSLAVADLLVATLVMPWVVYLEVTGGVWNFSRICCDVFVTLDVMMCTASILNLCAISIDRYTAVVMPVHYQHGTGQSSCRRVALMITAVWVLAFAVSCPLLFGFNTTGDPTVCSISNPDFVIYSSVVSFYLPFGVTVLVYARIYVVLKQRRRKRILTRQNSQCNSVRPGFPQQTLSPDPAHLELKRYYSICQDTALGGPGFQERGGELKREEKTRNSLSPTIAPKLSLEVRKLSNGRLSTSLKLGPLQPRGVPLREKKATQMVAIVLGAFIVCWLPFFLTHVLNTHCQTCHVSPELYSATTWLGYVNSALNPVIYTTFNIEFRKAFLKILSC

SMILES	Ki [1] [nM]	Ki [2] [nM]	Ki [3] [nM]	Ki [4] [nM]	Ratio Ki [5]
Cn1c(SCCCN2CCOC(c3ccc(C(F)(F)F)cc3)C2)nnc1-c1ccncc1 (racemic)	> 10000	100			
Cc1ncoc1-c1nnc(SCCCCN2CCOC(c3ccc(C(F)(F)F)cc3)C2)n1C (racemic)	> 10000	79.4	25.1		
Cn1c(SCCCN2CCOC(c3ccc(C(F)(F)F)cc3)C2)nnc1-c1ccc(-c2ncco2)cc1 (racemic)	> 10000	5.01	10	1000	
Cn1c(SCCCN2CCOC(c3ccc(C(F)(F)F)cc3)C2)nnc1-c1ccsc1 (racemic)	> 10000	100			
Cn1c(SCCCN2CCOC(c3ccc(C(F)(F)F)cc3)C2)nnc1-c1cccc(C(N)=O)c1 (racemic)	> 10000	316			
Cn1c(SCCCN2CCOC(c3ccc(C(F)(F)F)cc3)C2)nnc1C1CCCCC1 (racemic)	> 10000	39.8	20		200
Cc1ccc(C2CN(CCCSc3nnc(-c4ccc(-c5noc(C)n5)cc4)n3C)CCO2)cc1 (racemic)	> 10000	79.4	15.8	1000	
Cn1cncc1-c1nnc(SCCCN2CCOC(c3ccc(C(F)(F)F)cc3)C2)n1C (racemic)	> 10000	631			
Cn1c(SCCCN2CCOC(c3ccc(C(F)(F)F)cc3)C2)nnc1-c1ccc(C(N)=O)nc1 (racemic)	> 10000	31.6	15.8	2000	
Cc1ncoc1-c1nnc(SCCCN2CCOC(c3ccc(C(F)(F)F)cc3)C2)n1C (racemic)		126			
Cc1ncoc1-c1nnc(SCCCN2CCOC(c3ccc(C(F)(F)F)cc3F)C2)n1C (racemic)	> 10000	200			
Cn1c(SCCCN2CCOC(c3ccc(C(F)(F)F)cc3F)C2)nnc1-c1ccc(C(N)=O)cc1 (racemic)	> 10000	63.1	39.8		
Cn1c(SCCCN2CCOC(c3ccc(C(F)(F)F)cc3)C2)nnc1-c1cccnc1 (racemic)	> 10000	251			
Cn1c(SCCCN2CCOC(c3ccc(C(F)(F)F)cc3)C2)nnc1-c1ccc(C#N)cc1 (racemic)	> 10000	100			
Cn1cccc1-c1nnc(SCCCN2CCOC(c3ccc(C(F)(F)F)cc3)C2)n1C (racemic)	> 10000	126			
Cn1c(SCCCN2CCOC(c3ccc(C(F)(F)F)cc3)C2)nnc1-c1ccc(S(N)(=O)=O)cc1 (racemic)	> 10000	126			
Cc1ncoc1-c1nnc(SCCCN2CCOC(c3ccc(Br)cc3)C2)n1C (racemic)	> 10000	200			
